# ChEMBL document CHEMBL3102853, “Carbonic anhydrase inhibitors. Synthesis, and molecular structure of novel series N-substituted N'-(2-arylmethylthio-4-chloro-5-methylbenzenesulfonyl)guanidines and their inhibition of human cytosolic isozymes I and II and the transmembrane tumor-associated isozymes IX and XII” (Eur J Med Chem, 2014)
# Calls of active or inactive are those of the source. The calls are words filed in the database; no cut-off is given here.
# What was measured:
# Carbonic anhydrase 9 = Carbonic anhydrase 9 (Homo sapiens, UniProt Q16790)
# RPMI-8226 = experiment: Cytotoxicity against human RPMI8226 cells at 10 uM; assay type: functional; details: read-out: GI
# SW-620 = experiment: Cytotoxicity against human SW620 cells at 10 uM; assay type: functional
# HL-60(TB) = experiment: Cytotoxicity against human HL-60(TB) cells at 10 uM; assay type: functional; details: read-out: GI
# PC-3 = experiment: Cytotoxicity against human PC3 cells at 10 uM; assay type: functional; details: read-out: GI
# MDA-MB-468 = experiment: Cytotoxicity against human MDA-MB-468 cells at 10 uM; assay type: functional; details: read-out: GI
# OVCAR-3 = experiment: Cytotoxicity against human OVCAR3 cells at 10 uM; assay type: functional
# HOP-92 = experiment: Cytotoxicity against human HOP92 cells at 10 uM; assay type: functional; details: read-out: GI
# MCF7 = experiment: Cytotoxicity against human MCF7 cells at 10 uM; assay type: functional; details: read-out: GI
# DU-145 = experiment: Cytotoxicity against human DU145 cells at 10 uM; assay type: functional
# NCI-H460 = experiment: Cytotoxicity against human NCI-H460 cells at 10 uM; assay type: functional; details: read-out: GI
# NCI/ADR-RES = experiment: Cytotoxicity against human NCI-ADR-RES cells at 10 uM; assay type: functional
# SF-268 = experiment: Cytotoxicity against human SF268 cells at 10 uM; assay type: functional; details: read-out: GI
# LOX IMVI = experiment: Cytotoxicity against human LOXIMVI cells at 10 uM; assay type: functional; details: read-out: GI
# T47D = experiment: Cytotoxicity against human T47D cells at 10 uM; assay type: functional; details: read-out: GI
# A549 = experiment: Cytotoxicity against human A549 cells at 10 uM; assay type: functional; details: read-out: GI
# SNB-75 = experiment: Cytotoxicity against human SNB75 cells at 10 uM; assay type: functional; details: read-out: GI
# MOLT-4 = experiment: Cytotoxicity against human MOLT4 cells at 10 uM; assay type: functional; details: read-out: GI
# SK-MEL-2 = experiment: Cytotoxicity against human SK-MEL-2 cells at 10 uM; assay type: functional; details: read-out: GI
# [1] = Cytotoxicity against human Hs 578T cells at 10 uM; assay type: functional; details: read-out: GI
# UACC-62 = experiment: Cytotoxicity against human UACC62 cells at 10 uM; assay type: functional; details: read-out: GI
# SR = experiment: Cytotoxicity against human SR cells at 10 uM; assay type: functional; details: read-out: GI
# HT-29 = experiment: Cytotoxicity against human HT-29 cells at 10 uM; assay type: functional; details: read-out: GI
# KM12 = experiment: Cytotoxicity against human KM12 cells at 10 uM; assay type: functional; details: read-out: GI
# K562 = experiment: Cytotoxicity against human K562 cells at 10 uM; assay type: functional; details: read-out: GI
# A498 = experiment: Cytotoxicity against human A498 cells at 10 uM; assay type: functional; details: read-out: GI
structure (smiles),measurement,setting,value
Cc1cc(S(=O)(=O)NC(=N)NCc2ccc(S(N)(=O)=O)cc2)c(SCc2cc(=O)[nH]c3ccccc23)cc1Cl,Ki,Carbonic anhydrase 9,0.31 µM
Cc1cc(S(=O)(=O)NC(=N)Nc2cccc(S(N)(=O)=O)c2)c(SCc2ccccc2)cc1Cl,inhibition of growth at 10 µM,RPMI-8226,23%
same,growth inhibition (GI),SW-620,inactive
same,inhibition of growth at 10 µM,HL-60(TB),16%
same,inhibition of growth at 10 µM,PC-3,45%
same,inhibition of growth at 10 µM,MDA-MB-468,32%
same,growth inhibition (GI),OVCAR-3,inactive
same,inhibition of growth at 10 µM,HOP-92,46%
same,inhibition of growth at 10 µM,MCF7,21%
same,growth inhibition (GI),DU-145,inactive
same,inhibition of growth at 10 µM,NCI-H460,3%
same,growth inhibition (GI),NCI/ADR-RES,inactive
same,inhibition of growth at 10 µM,SF-268,12%
same,inhibition of growth at 10 µM,LOX IMVI,15%
same,inhibition of growth at 10 µM,T47D,13%
same,inhibition of growth at 10 µM,A549,16%
same,inhibition of growth at 10 µM,SNB-75,35%
same,inhibition of growth at 10 µM,MOLT-4,34%
same,inhibition of growth at 10 µM,SK-MEL-2,14%
same,inhibition of growth at 10 µM,[1],17%
same,inhibition of growth at 10 µM,UACC-62,30%
same,inhibition of growth at 10 µM,SR,15%
same,inhibition of growth at 10 µM,HT-29,8%
same,inhibition of growth at 10 µM,KM12,5%
same,inhibition of growth at 10 µM,K562,22%
same,inhibition of growth at 10 µM,A498,16%
